This is an account of results in patent US6060038A, “Radiolabeled farnesyl-protein transferase inhibitors” (Merck & Co., Inc., priority 1998, dated 2000).

Molecules are shown by their SMILES. Structures can show the parent of a compound that is named as a salt.

In one data set the test system is FPTase. The data set is described as follows: PET Imaging in Dogs: block of [^11 C]-Compound 1 radiotracer binding by infused FTI. It counts as in vivo, beagle dogs. The following applies: 10 mpk infused over 5 minutes, radiotracer [^11 C]-Compound 1. How it is done:
Kinetics of enzyme occupancy by an unlabeled FPTase inhibitor (test compound) is determined by this assay. Thus, FVB mice are injected the test compound at either 40 mpk or 10 mpk subcutaneously (0.1 mls). Thirty minutes prior to euthanasia, 3 nCi of tritiated farnesyl protein transferase inhibitor (radiotracer) was injected i.p. (0.2 mls 10% EtOH in 0.9% saline). Uninhibited binding of the radiotracer is determined by injection of the radiotracer in mice which have not received injection of the test compound. The mice are euthanized either 2 hours of 14 hours after injection of the test compound and lung, spleen, pancrease and blood are removed and processed as described above. Data are plotted as %-dose/g of tissue (wet weight). […]
Oxygen saturation of circulating blood is measured with a pulse oximeter (Nellcor Inc., Hayward, Calif.) placed on the tongue of the animal. […] EKG, heart rate, and core temperature are monitored continuously. […]
For uninhibited distribution of radiotracer, regions of interest (ROIs) are drawn on the reconstructed image includes the kidney cortex and a region of liver which is removed from the gallbladder images. […] Data are expressed as radioactivity per unit time per unit volume (μCi/cc/mCi injected dose). […]

Data set [1] is described as follows: Radiochemical decomposition of stored radiotracer samples. The settings on record: stored for up to 90 minutes in sterile glass vial; saline/sodium bicarbonate. It counts as physicochemical. How it is done: The container used for the drug is described above. It consists of a sterile, pyrogen free glass vial with a crimp-sealed aluminum cap surrounding a rubber stopper. Samples of the radiotracer have been stored for up to 90 minutes and analyzed for radiochemical decomposition.

Regarding `CCCC[C@H]1CN(c2cccc(C)c2C)C(=O)CN1Cc1cncn1Cc1ccc(C#N)cc1.O=C(O)C(F)(F)F.O=C(O)C(F)(F)F` [Compound 3, 5(S)-n-Butyl-4-[1-(4-cyanobenzyl)imidazol-5-ylmethyl]-1-(2,3-dimethylphenyl)piperazin-2-one ditrifluoroacetic acid salt], in the data set with FPTase, the “block of radiotracer binding” value is listed as “completely block radiotracer binding”.

Consider `[11CH3]S(=O)(=O)CC[C@H]1CN(c2cc(I)cc(CF)c2)C(=O)CN1Cc1cncn1Cc1ccc(C#N)cc1` [[^11 C]-Compound 1, (S)-1-(3-iodo-5-fluoromethylphenyl)-4-[1-(4-cyanobenzyl)-5-imidazolylmethyl]-5-[2-(^11 C-methanesulfonyl)ethyl]-2-piperazinone dihydrochloride], for which the “radiochemical decomposition on storage” value in data set [1] was “No decomposition has been observed”.
